Test results from patent publication US6914045B2, “Glycopeptide antibiotics” (Wyeth Holdings Corporation, priority 2001, dated 2005).
≈ marks a conversion by molar mass, not a printed value.

Experiments:
Assay in all cases: in vitro antibacterial evaluation, MIC by broth dilution
Format in all cases: cell-based
Enterococcus sp. = conditions: broth dilution, 18 hours at 35° C.
Method in brief: (§1)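 Broth dilution per NCCLS standard M7-A2 in Muller-Hinton II […], with an inoculum of 5×10^5 CFU/mL and antibiotic spanning 64-0.06 μg/mL. The MIC is the lowest concentration that inhibits growth of the organism.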

Staphylococcus sp. = conditions: broth dilution, 18 hours at 35° C.
Method in brief: as §1

Streptococcus sp. = conditions: broth dilution, 18 hours at 35° C.
Method in brief: as §1

Escherichia coli = conditions: 18 hours at 35° C.

SMILES: CC(c1ccccc1)C1NC(=O)CNC(=O)C(CO)NC(=O)C(C(O)C2CNC(=N)N2C2OC(CO)C(O)C(O)C2O)NC(=O)C(C(O)C2CNC(=N)N2)NC(=O)C(Cc2ccc(OC3OC(CO)C(OC4OC(CO)C(O)C(OCc5ccc(OCc6ccccc6)cc5)C4O)C(O)C3O)cc2)NC1=O (stereo not drawn) [Example 231c, Cyclo[glycyl-β-methylphenylalanyl-O-[4-O-[3-O-[4-(phenylmethoxy)benzyl]hexopyranosyl]-hexopyranosyl]tyrosyl-3-(2-iminoimidazolidin-4-yl)seryl-3-(3-hexopyranosyl-2-iminoimidazolidin-4-yl)serylseryl]]
- MIC Enterococcus avium (GC 4558) (Enterococcus sp.): 4 µg/mL (≈ 2.68 µM)
- MIC Enterococcus faecalis (ATCC 29212) (Enterococcus sp.): 4 µg/mL (≈ 2.68 µM)
- MIC Enterococcus faecalis (GC 2242) (Enterococcus sp.): 4 µg/mL (≈ 2.68 µM)
- MIC Enterococcus faecalis (GC 2691) (Enterococcus sp.): 8 µg/mL (≈ 5.36 µM)
- MIC Enterococcus faecalis (GC 3059) (Enterococcus sp.): 4 µg/mL (≈ 2.68 µM)
- MIC Enterococcus faecalis (GC 4552) (Enterococcus sp.): 4 µg/mL (≈ 2.68 µM)
- MIC Enterococcus faecalis (GC 4553) (Enterococcus sp.): 4 µg/mL (≈ 2.68 µM)
- MIC Enterococcus faecalis (GC 4554) (Enterococcus sp.): 4 µg/mL (≈ 2.68 µM)
- MIC Enterococcus faecalis (GC 6189) (Enterococcus sp.): 4 µg/mL (≈ 2.68 µM)
- MIC Enterococcus faecium (GC 2243) (Enterococcus sp.): 4 µg/mL (≈ 2.68 µM)
- MIC Enterococcus faecium (GC 4556) (Enterococcus sp.): 4 µg/mL (≈ 2.68 µM)
- MIC Enterococcus faecium (GC 4557) (Enterococcus sp.): 4 µg/mL (≈ 2.68 µM)
- MIC Enterococcus faecalis (ATCC 29212) (Enterococcus sp.; inoculum 5×10^5 CFU/mL, strain ATCC 29212): 4 µg/mL (≈ 2.68 µM)
- MIC Enterococcus faecalis (GC 2242) (Enterococcus sp.; inoculum 5×10^5 CFU/mL, strain GC 2242): 4 µg/mL (≈ 2.68 µM)
- MIC Enterococcus faecium (GC 2243) (Enterococcus sp.; inoculum 5×10^5 CFU/mL, strain GC 2243): 4 µg/mL (≈ 2.68 µM)
- MIC Enterococcus faecalis (GC 2691) (Enterococcus sp.; inoculum 5×10^5 CFU/mL, strain GC 2691): 8 µg/mL (≈ 5.36 µM)
- MIC Enterococcus faecalis (GC 3059) (Enterococcus sp.; inoculum 5×10^5 CFU/mL, strain GC 3059): 4 µg/mL (≈ 2.68 µM)
- MIC Enterococcus faecalis (GC 4552) (Enterococcus sp.; inoculum 5×10^5 CFU/mL, strain GC 4552): 4 µg/mL (≈ 2.68 µM)
- MIC Enterococcus faecalis (GC 4553) (Enterococcus sp.; inoculum 5×10^5 CFU/mL, strain GC 4553): 4 µg/mL (≈ 2.68 µM)
- MIC Enterococcus faecalis (GC 4554) (Enterococcus sp.; inoculum 5×10^5 CFU/mL, strain GC 4554): 4 µg/mL (≈ 2.68 µM)
- MIC Enterococcus faecium (GC 4556) (Enterococcus sp.; inoculum 5×10^5 CFU/mL, strain GC 4556): 4 µg/mL (≈ 2.68 µM)
- MIC Enterococcus faecium (GC 4557) (Enterococcus sp.; inoculum 5×10^5 CFU/mL, strain GC 4557): 4 µg/mL (≈ 2.68 µM)
- MIC Enterococcus avium (GC 4558) (Enterococcus sp.; inoculum 5×10^5 CFU/mL, strain GC 4558): 4 µg/mL (≈ 2.68 µM)
- MIC Enterococcus faecalis (GC 6189) (Enterococcus sp.; inoculum 5×10^5 CFU/mL, strain GC 6189): 4 µg/mL (≈ 2.68 µM)
- MIC Coagulase Negative Staphylococcus (GC 4547) (Staphylococcus sp.): 2 µg/mL (≈ 1.34 µM)
- MIC Coagulase Negative Staphylococcus (GC 4548) (Staphylococcus sp.): 0.5 µg/mL (≈ 0.335 µM)
- MIC Coagulase Negative Staphylococcus (GC 4549) (Staphylococcus sp.): 0.5 µg/mL (≈ 0.335 µM)
- MIC Coagulase Negative Staphylococcus (GC 4551) (Staphylococcus sp.): 1 µg/mL (≈ 0.67 µM)
- MIC Coagulase Negative Staphylococcus (GC 6257) (Staphylococcus sp.): 0.5 µg/mL (≈ 0.335 µM)
- MIC Staphylococcus aureus (ATCC 29213) (Staphylococcus sp.): 1 µg/mL (≈ 0.67 µM)
- MIC Staphylococcus aureus (GC 1131) (Staphylococcus sp.): 2 µg/mL (≈ 1.34 µM)
- MIC Staphylococcus aureus (GC 3051) (Staphylococcus sp.): 2 µg/mL (≈ 1.34 µM)
- MIC Staphylococcus aureus (GC 3053) (Staphylococcus sp.): 2 µg/mL (≈ 1.34 µM)
- MIC Staphylococcus aureus (GC 4541) (Staphylococcus sp.): 2 µg/mL (≈ 1.34 µM)
- MIC Staphylococcus aureus (GC 4542) (Staphylococcus sp.): 2 µg/mL (≈ 1.34 µM)
- MIC Staphylococcus aureus (GC 4544) (Staphylococcus sp.): 2 µg/mL (≈ 1.34 µM)
- MIC Staphylococcus aureus (GC 4545) (Staphylococcus sp.): 2 µg/mL (≈ 1.34 µM)
- MIC Staphylococcus aureus-SMITH (GC 4543) (Staphylococcus sp.): 1 µg/mL (≈ 0.67 µM)
- MIC Staphylococcus haemolyticus (GC 4546) (Staphylococcus sp.): 1 µg/mL (≈ 0.67 µM)
- MIC Staphylococcus aureus (ATCC 29213) (Staphylococcus sp.; strain ATCC 29213): 1 µg/mL (≈ 0.67 µM)
- MIC Staphylococcus aureus (GC 1131) (Staphylococcus sp.; strain GC 1131): 2 µg/mL (≈ 1.34 µM)
- MIC Staphylococcus aureus (GC 3051) (Staphylococcus sp.; strain GC 3051): 2 µg/mL (≈ 1.34 µM)
- MIC Staphylococcus aureus (GC 3053) (Staphylococcus sp.; strain GC 3053): 2 µg/mL (≈ 1.34 µM)
- MIC Staphylococcus aureus (GC 4541) (Staphylococcus sp.; strain GC 4541): 2 µg/mL (≈ 1.34 µM)
- MIC Staphylococcus aureus (GC 4542) (Staphylococcus sp.; strain GC 4542): 2 µg/mL (≈ 1.34 µM)
- MIC Staphylococcus aureus-SMITH (GC 4543) (Staphylococcus sp.; strain GC 4543): 1 µg/mL (≈ 0.67 µM)
- MIC Staphylococcus aureus (GC 4544) (Staphylococcus sp.; strain GC 4544): 2 µg/mL (≈ 1.34 µM)
- MIC Staphylococcus aureus (GC 4545) (Staphylococcus sp.; strain GC 4545): 2 µg/mL (≈ 1.34 µM)
- MIC Staphylococcus haemolyticus (GC 4546) (Staphylococcus sp.; strain GC 4546): 1 µg/mL (≈ 0.67 µM)
- MIC Coagulase Negative Staphylococcus (GC 4547) (Staphylococcus sp.; strain GC 4547): 2 µg/mL (≈ 1.34 µM)
- MIC Coagulase Negative Staphylococcus (GC 4548) (Staphylococcus sp.; strain GC 4548): 0.5 µg/mL (≈ 0.335 µM)
- MIC Coagulase Negative Staphylococcus (GC 4549) (Staphylococcus sp.; strain GC 4549): 0.5 µg/mL (≈ 0.335 µM)
- MIC Coagulase Negative Staphylococcus (GC 4551) (Staphylococcus sp.; strain GC 4551): 1 µg/mL (≈ 0.67 µM)
- MIC Coagulase Negative Staphylococcus (GC 6257) (Staphylococcus sp.; strain GC 6257): 0.5 µg/mL (≈ 0.335 µM)
- MIC Streptococcus agalactiae (GC 4564) (Streptococcus sp.): <0.12 µg/mL
- MIC Streptococcus pneumoniae (ATCC 6301) (Streptococcus sp.): <0.12 µg/mL
- MIC Streptococcus pneumoniae (GC 1894) (Streptococcus sp.): <0.12 µg/mL
- MIC Streptococcus pneumoniae (GC 4565) (Streptococcus sp.): <0.12 µg/mL
- MIC Streptococcus pyogenes (GC 4563) (Streptococcus sp.): <0.12 µg/mL
- MIC Streptococcus pneumoniae (ATCC 6301) (Streptococcus sp.; inoculum 5×10^5 CFU/mL, strain ATCC 6301): <0.12 µg/mL
- MIC Streptococcus pneumoniae (GC 1894) (Streptococcus sp.; inoculum 5×10^5 CFU/mL, strain GC 1894): <0.12 µg/mL
- MIC Streptococcus pyogenes (GC 4563) (Streptococcus sp.; inoculum 5×10^5 CFU/mL, strain GC 4563): <0.12 µg/mL
- MIC Streptococcus agalactiae (GC 4564) (Streptococcus sp.; inoculum 5×10^5 CFU/mL, strain GC 4564): <0.12 µg/mL
- MIC Streptococcus pneumoniae (GC 4565) (Streptococcus sp.; inoculum 5×10^5 CFU/mL, strain GC 4565): <0.12 µg/mL
- MIC Escherichia coli (ATCC 25922) (Escherichia coli): >128 µg/mL
- MIC Escherichia coli (GC 4559) (Escherichia coli): >128 µg/mL
- MIC Escherichia coli (GC 4560) (Escherichia coli): 2 µg/mL (≈ 1.34 µM)
